Laboratory results from article PMC10206591, “Identification of small molecules capable of enhancing viral membrane fusion” (Virology Journal, 2023).
Structures can show the parent of a compound that is named as a salt.

These molecules were tested on SARS-CoV-2 S-mediated membrane fusion.

| Compound | Z-score |
| --- | --- |
| CC=CC(=O)N(CC)c1ccccc1C (mixture of isomers) [Crotamiton] | 2,94 |
| O=c1[nH]cc(F)c(=O)[nH]1 [5-fluorouracil] | 3,16 |
| CC(=O)c1ccc2c(c1)N(CCCN(C)C)c1ccccc1S2.O=C(O)/C=C\C(=O)O [Acetopromazine maleate salt] | 1,71 |
| CCCSc1ccc2nc(NC(=O)OC)[nH]c2c1 [Albendazole] | 1,67 |
| C=CC[C@]1(O)CC[C@H]2[C@@H]3CCC4=CC(=O)CCC4=C3C=C[C@@]21C [Altrenogest] | 2,61 |
| CCCCCC[C@H]1C(=O)O[C@H](C)[C@H](NC(=O)c2cccc(NC=O)c2O)C(=O)O[C@@H](C)[C@@H]1OC(=O)CC(C)C [Antimycin A] | 4,08 |
| CC(C)c1c(C(=O)Nc2ccccc2)c(-c2ccccc2)c(-c2ccc(F)cc2)n1CC[C@@H](O)C[C@@H](O)CC(=O)O [Atorvastatin] | 1,88 |
| Nc1nc(O)c2[nH]nnc2n1 [Azaguanine-8] | 6,79 |
| CCCC1C(=O)N2C(N(C)C)=Nc3ccc(C)cc3N2C1=O (stereo not shown) [Azapropazone] | 1,91 |
| CN1CCCC(n2nc(Cc3ccc(Cl)cc3)c3ccccc3c2=O)CC1 (stereo not shown) [Azelastine hydrochloride] | 1,52 |
| Cl.N[C@@H]1CCCCN(c2c(F)cc3c(=O)c(C(=O)O)cn(C4CC4)c3c2Cl)C1 [Besifloxacin hydrochloride] | 2,15 |
| CC(C)C[C@H]1C(=O)N2CCC[C@H]2[C@]2(O)O[C@](NC(=O)[C@@H]3C=C4c5cccc6[nH]c(Br)c(c56)C[C@H]4N(C)C3)(C(C)C)C(=O)N12.CS(=O)(=O)O [Bromocryptine mesylate] | 5,89 |
| CCCCCCNC(=O)n1cc(F)c(=O)[nH]c1=O [Carmofur] | 4,69 |
| O=C(N[C@H](CO)[C@H](O)c1ccc([N+](=O)[O-])cc1)C(Cl)Cl [Chloramphenicol] | 2,64 |
| Nc1nc(Cl)nc2c1ncn2[C@H]1C[C@H](O)[C@@H](CO)O1 [Cladribine] | 1,60 |
| CCCCCCC[N+](CC)(CC)CCCCc1ccc(Cl)cc1.Cc1ccc(S(=O)(=O)[O-])cc1 [Clofilium tosylate] | 2,76 |
| COc1cc2c(c(OC)c1OC)-c1ccc(OC)c(=O)cc1[C@@H](NC(C)=O)CC2 [Colchicine] | 1,93 |
| CN(C)/N=N/c1[nH]cnc1C(N)=O [Dacarbazine] | 2,34 |
| COc1cccc2c1C(=O)c1c(O)c3c(c(O)c1C2=O)C[C@@](O)(C(C)=O)C[C@@H]3O[C@H]1C[C@H](N)[C@H](O)[C@H](C)O1 [Daunorubicin hydrochloride] | 1,79 |
| Cc1cc(N)c2ccccc2[n+]1CCCCCCCCCC[n+]1c(C)cc(N)c2ccccc21 [Dequalinium dichloride] | 4,90 |
| Clc1ccc2c(c1)CCc1cccnc1C2=C1CCNCC1 [Desloratadine] | 1,59 |
| CC1(C)O[C@@H]2C[C@H]3[C@@H]4CCC5=CC(=O)C=C[C@]5(C)[C@H]4[C@@H](O)C[C@]3(C)[C@]2(C(=O)CO)O1 [Desonide] | 1,59 |
| CC(=O)O[C@@]12CO[C@@H]1C[C@H](O)[C@@]1(C)C(=O)[C@H](O)C3=C(C)[C@@H](OC(=O)[C@H](O)[C@@H](NC(=O)OC(C)(C)C)c4ccccc4)C[C@@](O)([C@@H](OC(=O)c4ccccc4)[C@H]21)C3(C)C [Docetaxel] | 1,72 |
| COc1cccc2c1C(=O)c1c(O)c3c(c(O)c1C2=O)C[C@@](O)(C(=O)CO)C[C@@H]3O[C@H]1C[C@H](N)[C@H](O)[C@H](C)O1 [Doxorubicin hydrochloride] | 4,48 |

| Compound | Z-score |
| --- | --- |
| C[C@H]1c2cccc(O)c2C(=O)C2=C(O)[C@]3(O)C(=O)C(C(N)=O)=C(O)[C@@H](N(C)C)[C@@H]3[C@@H](O)[C@@H]21 [Doxycycline hydrochloride] | 3,00 |
| C=CCOC(Cn1ccnc1)c1ccc(Cl)cc1Cl (stereo not shown) [Enilconazole] | 3,25 |
| C[C@]12CC[C@H]3C(=CCc4cc(O)ccc43)[C@@H]1CCC2=O [Equilin] | 1,98 |
| C[C@]12CC[C@@H]3c4ccc(OC(=O)N(CCCl)CCCl)cc4CC[C@H]3[C@@H]1CC[C@@H]2O [Estramustine] | 3,30 |
| CCOc1ccc(Cc2nccc3cc(OCC)c(OCC)cc23)cc1OCC [Ethaverine hydrochloride] | 4,10 |
| C#C[C@]1(O)CC[C@H]2[C@@H]3CCc4cc(OC)ccc4[C@H]3CC[C@@]21C [Ethynylestradiol 3-methyl ether] | 1,52 |
| O=c1[nH]c(=O)n([C@H]2C[C@H](O)[C@@H](CO)O2)cc1F [Floxuridine] | 4,71 |
| COC(=O)Nc1nc2cc(C(=O)c3ccc(F)cc3)ccc2[nH]1 [Flubendazol] | 3,95 |
| CC(=O)O[C@H]1C[C@@]2(C)[C@@H](C[C@@H](O)[C@H]3[C@@]4(C)CC[C@@H](O)[C@@H](C)[C@@H]4CC[C@@]32C)/C1=C(\CCC=C(C)C)C(=O)O [Fusidic acid sodium salt] | 2,35 |
| COc1cc2ncnc(Nc3ccc(F)c(Cl)c3)c2cc1OCCCN1CCOCC1 [Gefitinib] | 3,33 |
| Oc1c(Cl)cc(Cl)c(Cl)c1Cc1c(O)c(Cl)cc(Cl)c1Cl [Hexachlorophene] | 3,99 |
| CC[C@H](c1ccc(O)cc1)[C@@H](CC)c1ccc(O)cc1 [Hexestrol] | 2,65 |
| CN1CCCN(C(c2ccccc2)c2ccc(Cl)cc2)CC1.Cl.Cl (stereo not shown) [Homochlorcyclizine dihydrochloride] | 2,19 |
| CC(C)C(=O)c1c(C(C)C)nn2ccccc12 [Ibudilast] | 1,71 |
| Cc1ccc(NC(=O)c2ccc(CN3CCN(C)CC3)cc2)cc1Nc1nccc(-c2cccnc2)n1 [Imatinib] | 2,20 |
| CC(C)Oc1ccc2c(=O)c(-c3ccccc3)coc2c1 [Ipriflavone] | 2,37 |
| CCc1c2c(nc3ccc(OC(=O)N4CCC(N5CCCCC5)CC4)cc13)-c1cc3c(c(=O)n1C2)COC(=O)[C@]3(O)CC.Cl.O.O.O [Irinotecan hydrochloride trihydrate] | 4,23 |
| Cc1c(OCC(F)(F)F)ccnc1C[S+]([O-])c1nc2ccccc2[nH]1 (stereo not shown) [Lansoprazole] | 3,43 |
| CNCCCC12CCC(c3ccccc31)c1ccccc12 [Maprotiline hydrochloride] | 2,05 |
| O=C([O-])c1ccccc1-c1c2cc(Br)c(=O)cc-2oc2[c]([Hg+])c([O-])c(Br)cc12.[Na+].[Na+].[OH-] [Merbromin] | 8,74 |
| COC(=O)Nc1nc2ccc(SC(C)C)cc2[nH]1 [Methiazole] | 3,16 |
| CC[C@H](C)C(=O)O[C@H]1CCC=C2C=C[C@H](C)[C@H](CC[C@@H]3C[C@@H](O)CC(=O)O3)[C@H]21 [Mevastatin] | 1,92 |
| CN(C)c1ccc(O)c2c1C[C@H]1C[C@H]3[C@H](N(C)C)C(O)=C(C(N)=O)C(=O)[C@@]3(O)C(O)=C1C2=O [Minocycline hydrochloride] | 4,43 |
| CN(c1nccc(=O)[nH]1)C1CCN(c2nc3ccccc3n2Cc2ccc(F)cc2)CC1 [Mizolastine] | 2,15 |

| Compound | Z-score |
| --- | --- |
| C[C@@H]1C[C@H]2[C@@H]3CCC4=CC(=O)C=C[C@]4(C)[C@@]3(Cl)[C@@H](O)C[C@]2(C)[C@@]1(OC(=O)c1ccco1)C(=O)CCl [Mometasone furoate] | 2,51 |
| C/C(=C\C(=O)OCCCCCCCCC(=O)O)C[C@@H]1OC[C@H](C[C@@H]2O[C@H]2[C@@H](C)[C@H](C)O)[C@@H](O)[C@H]1O [Mupirocin] | 1,57 |
| O=C1CN(/N=C/c2ccc([N+](=O)[O-])o2)C(=O)N1 [Nitrofurantoin] | 2,23 |
| COC(=O)Nc1nc2ccc(C(=O)c3cccs3)cc2[nH]1 [Nocodazole] | 2,99 |
| COC(=O)Nc1nc2ccc([S+]([O-])c3ccccc3)cc2[nH]1 (stereo not shown) [Oxfendazol] | 1,63 |
| CCCOc1ccc2nc(NC(=O)OC)[nH]c2c1 [Oxibendazol] | 2,13 |
| CN(C)[C@@H]1C(O)=C(C(N)=O)C(=O)[C@@]2(O)C(O)=C3C(=O)c4c(O)cccc4[C@@](C)(O)[C@H]3[C@H](O)[C@@H]12 [Oxytetracycline dihydrate] | 2,06 |
| COc1ccc(Cc2nccc3cc(OC)c(OC)cc23)cc1OC [Papaverine hydrochloride] | 4,33 |
| CCCCc1ccc2[nH]c(NC(=O)OC)nc2c1 [Parbendazole] | 2,56 |
| N=C(N)c1ccc(OCCCCCOc2ccc(C(=N)N)cc2)cc1 [Pentamidine isethionate] | 6,07 |
| O=C(O)CN(CCN(CC(=O)O)CC(=O)O)CCN(CC(=O)O)CC(=O)O [Pentetic acid] | 2,14 |
| C1CCC(C(CC2CCCCN2)C2CCCCC2)CC1 (stereo not shown) [Perhexiline maleate] | 2,68 |
| CC(=O)Nc1ccc(OCC(O)CNC(C)C)cc1 (stereo not shown) [Practolol] | 1,57 |
| COCCCOc1ccnc(C[S+]([O-])c2nc3ccccc3[nH]2)c1C (stereo not shown) [Rabeprazole Sodium salt] | 3,89 |
| O=C(O)c1cn(-c2ccc(F)cc2)c2cc(N3CCNCC3)c(F)cc2c1=O [Sarafloxacin] | 2,16 |
| C[C@@H]1CN(c2c(F)c(N)c3c(=O)c(C(=O)O)cn(C4CC4)c3c2F)C[C@H](C)N1 [Sparfloxacin] | 2,09 |
| CS(=O)(=O)c1ccc([C@@H](O)[C@@H](CO)NC(=O)C(Cl)Cl)cc1 [Thiamphenicol] | 2,42 |
| CN1CCN(CCCN2c3ccccc3Sc3ccc(S(=O)(=O)N(C)C)cc32)CC1.CS(=O)(=O)O.CS(=O)(=O)O [Thioproperazine dimesylate] | 2,39 |
| C=C(NC(=O)C(=C)NC(=O)c1csc(C2=N[C@@H]3c4csc(n4)[C@H]4NC(=O)c5csc(n5)[C@H]([C@](C)(O)[C@@H](C)O)NC(=O)[C@H]5CSC(=N5)/C(=C/C)NC(=O)[C@H]([C@@H](C)O)NC(=O)c5csc(n5)[C@]3(CC2)NC(=O)[C@H](C)NC(=O)C(=C)NC(=O)[C@H](C)NC(=O)[C@H]([C@@H](C)CC)N[C@@H]2C=Cc3c([C@H](C)O)cc(nc3[C@H]2O)C(=O)O[C@@H]4C)n1)C(N)=O [Thiostrepton] | 5,52 |
| O=C(O)Cc1cc(I)c(Oc2ccc(O)c(I)c2)c(I)c1 [Tiratricol, 3,3',5-triiodothyroacetic acid] | 4,40 |
| Cl.NC1CCN(c2nc3c(cc2F)c(=O)c(C(=O)O)cn3-c2ccc(F)cc2F)C1 (stereo not shown) [Tosufloxacin hydrochloride] | 1,77 |
| O=C(CCCCCCC(=O)Nc1ccccc1)NO [Vorinostat] | 4,62 |
